Several values for one entry are separate records, joined by “and”; a condition that tells them apart may be missing. Equal values may be shown once. ± gives the expanded uncertainty stated by the source.
Assay: specific heat capacity at constant pressure; xn = mol fraction of the nth substance listed
Conditions: 100 kPa, Crystal of intercomponent compound 1, relaxation calorimetry, x2 = 0.486

## [Te] [tellurium] + [Ga]
14.14 K
  specific heat capacity: 12.49 ± 1 J/K/kg
14.15 K
  specific heat capacity: 12.53 ± 1 J/K/kg
16.16 K
  specific heat capacity: 17.22 ± 1.2 J/K/kg
16.18 K
  specific heat capacity: 17.24 ± 1.2 J/K/kg
18.17 K
  specific heat capacity: 22.39 ± 1.4 J/K/kg and 22.38 ± 1.4 J/K/kg
18.18 K
  specific heat capacity: 22.43 ± 1.4 J/K/kg
20.18 K
  specific heat capacity: 27.78 ± 1.6 J/K/kg
20.19 K
  specific heat capacity: 27.77 ± 1.6 J/K/kg
20.2 K
  specific heat capacity: 27.79 ± 1.6 J/K/kg
22.21 K
  specific heat capacity: 33.2 ± 1.7 J/K/kg
22.22 K
  specific heat capacity: 33.22 ± 1.7 J/K/kg
24.22 K
  specific heat capacity: 38.74 ± 1.9 J/K/kg
24.23 K
  specific heat capacity: 38.79 ± 1.9 J/K/kg
26.24 K
  specific heat capacity: 44.36 ± 2.1 J/K/kg and 44.33 ± 2.1 J/K/kg and 44.32 ± 2.1 J/K/kg
28.25 K
  specific heat capacity: 49.69 ± 2.3 J/K/kg
28.26 K
  specific heat capacity: 49.67 ± 2.3 J/K/kg
30.27 K
  specific heat capacity: 54.94 ± 2.5 J/K/kg
30.29 K
  specific heat capacity: 54.99 ± 2.5 J/K/kg
35.31 K
  specific heat capacity: 68.01 ± 2.9 J/K/kg
35.32 K
  specific heat capacity: 68.01 ± 2.9 J/K/kg
35.33 K
  specific heat capacity: 68.06 ± 2.9 J/K/kg
40.35 K
  specific heat capacity: 80.38 ± 3.4 J/K/kg
40.36 K
  specific heat capacity: 80.53 ± 3.4 J/K/kg and 80.38 ± 3.4 J/K/kg
45.39 K
  specific heat capacity: 92.13 ± 3.9 J/K/kg
45.41 K
  specific heat capacity: 91.88 ± 3.9 J/K/kg
50.41 K
  specific heat capacity: 103.44 ± 4.3 J/K/kg
50.43 K
  specific heat capacity: 103.49 ± 4.3 J/K/kg
50.46 K
  specific heat capacity: 103.13 ± 4.3 J/K/kg
55.45 K
  specific heat capacity: 113.77 ± 4.7 J/K/kg
55.46 K
  specific heat capacity: 113.98 ± 4.7 J/K/kg
55.5 K
  specific heat capacity: 113.47 ± 4.7 J/K/kg
60.48 K
  specific heat capacity: 123.56 ± 5.1 J/K/kg
60.5 K
  specific heat capacity: 123.56 ± 5.1 J/K/kg
60.52 K
  specific heat capacity: 123.05 ± 5.1 J/K/kg
65.51 K
  specific heat capacity: 133.13 ± 5.5 J/K/kg
65.54 K
  specific heat capacity: 132.63 ± 5.4 J/K/kg
65.55 K
  specific heat capacity: 133.08 ± 5.5 J/K/kg
70.55 K
  specific heat capacity: 141.95 ± 5.8 J/K/kg
70.56 K
  specific heat capacity: 141.34 ± 5.8 J/K/kg
70.6 K
  specific heat capacity: 141.7 ± 5.8 J/K/kg
75.58 K
  specific heat capacity: 149.91 ± 6.1 J/K/kg
75.59 K
  specific heat capacity: 149.2 ± 6.1 J/K/kg
75.64 K
  specific heat capacity: 149.81 ± 6.1 J/K/kg
80.61 K
  specific heat capacity: 157.76 ± 6.4 J/K/kg
80.63 K
  specific heat capacity: 157.11 ± 6.4 J/K/kg
80.67 K
  specific heat capacity: 157.61 ± 6.4 J/K/kg
85.63 K
  specific heat capacity: 164.86 ± 6.7 J/K/kg
85.64 K
  specific heat capacity: 164.2 ± 6.7 J/K/kg
85.72 K
  specific heat capacity: 164.66 ± 6.7 J/K/kg
90.68 K
  specific heat capacity: 171.5 ± 7 J/K/kg and 170.94 ± 6.9 J/K/kg
90.75 K
  specific heat capacity: 171.14 ± 7 J/K/kg
95.71 K
  specific heat capacity: 177.22 ± 7.2 J/K/kg and 176.31 ± 7.2 J/K/kg
95.78 K
  specific heat capacity: 176.62 ± 7.2 J/K/kg
100.78 K
  specific heat capacity: 185.08 ± 7.6 J/K/kg
100.82 K
  specific heat capacity: 184.52 ± 7.5 J/K/kg
100.86 K
  specific heat capacity: 184.88 ± 7.6 J/K/kg
105.73 K
  specific heat capacity: 192.73 ± 7.9 J/K/kg
105.87 K
  specific heat capacity: 191.31 ± 7.8 J/K/kg and 192.07 ± 7.8 J/K/kg
113.71 K
  specific heat capacity: 198.86 ± 8.1 J/K/kg
113.79 K
  specific heat capacity: 197.4 ± 8 J/K/kg
113.83 K
  specific heat capacity: 197.65 ± 8.1 J/K/kg
121.68 K
  specific heat capacity: 205.1 ± 8.3 J/K/kg
121.71 K
  specific heat capacity: 204.14 ± 8.3 J/K/kg
121.77 K
  specific heat capacity: 203.73 ± 8.3 J/K/kg
129.62 K
  specific heat capacity: 209.51 ± 8.5 J/K/kg
129.64 K
  specific heat capacity: 209.91 ± 8.5 J/K/kg
129.7 K
  specific heat capacity: 208.39 ± 8.5 J/K/kg
137.55 K
  specific heat capacity: 213.76 ± 8.7 J/K/kg
137.59 K
  specific heat capacity: 213.56 ± 8.7 J/K/kg
137.61 K
  specific heat capacity: 212.24 ± 8.6 J/K/kg
145.48 K
  specific heat capacity: 218.93 ± 8.9 J/K/kg
145.53 K
  specific heat capacity: 218.27 ± 8.9 J/K/kg
145.54 K
  specific heat capacity: 217.36 ± 8.8 J/K/kg
153.41 K
  specific heat capacity: 222.38 ± 9 J/K/kg
153.42 K
  specific heat capacity: 222.23 ± 9 J/K/kg
153.44 K
  specific heat capacity: 222.08 ± 9 J/K/kg
161.35 K
  specific heat capacity: 224.41 ± 9.1 J/K/kg and 224.26 ± 9.1 J/K/kg
161.36 K
  specific heat capacity: 224.31 ± 9.1 J/K/kg
169.28 K
  specific heat capacity: 227.5 ± 9.2 J/K/kg and 227.09 ± 9.2 J/K/kg
169.3 K
  specific heat capacity: 227.04 ± 9.2 J/K/kg
177.2 K
  specific heat capacity: 229.17 ± 9.3 J/K/kg and 228.87 ± 9.3 J/K/kg
177.22 K
  specific heat capacity: 228.92 ± 9.3 J/K/kg
185.1 K
  specific heat capacity: 230.89 ± 9.4 J/K/kg
185.14 K
  specific heat capacity: 230.79 ± 9.4 J/K/kg
185.15 K
  specific heat capacity: 230.59 ± 9.4 J/K/kg
193.03 K
  specific heat capacity: 233.63 ± 9.5 J/K/kg
193.06 K
  specific heat capacity: 233.38 ± 9.5 J/K/kg
193.08 K
  specific heat capacity: 233.43 ± 9.5 J/K/kg
200.95 K
  specific heat capacity: 233.83 ± 9.5 J/K/kg
200.99 K
  specific heat capacity: 233.88 ± 9.5 J/K/kg
201 K
  specific heat capacity: 233.68 ± 9.5 J/K/kg
201.42 K
  specific heat capacity: 236.77 ± 9.9 J/K/kg
201.44 K
  specific heat capacity: 236.67 ± 9.9 J/K/kg
201.53 K
  specific heat capacity: 234.69 ± 9.5 J/K/kg
206.43 K
  specific heat capacity: 237.94 ± 9.7 J/K/kg
206.46 K
  specific heat capacity: 237.84 ± 9.7 J/K/kg
206.54 K
  specific heat capacity: 236.01 ± 9.6 J/K/kg
208.87 K
  specific heat capacity: 236.16 ± 9.6 J/K/kg
208.91 K
  specific heat capacity: 236.52 ± 9.6 J/K/kg
208.92 K
  specific heat capacity: 236.37 ± 9.6 J/K/kg
211.46 K
  specific heat capacity: 238.9 ± 9.7 J/K/kg
211.47 K
  specific heat capacity: 238.9 ± 9.7 J/K/kg
211.55 K
  specific heat capacity: 236.98 ± 9.6 J/K/kg
216.49 K
  specific heat capacity: 239.91 ± 9.7 J/K/kg
216.55 K
  specific heat capacity: 238.55 ± 9.7 J/K/kg
216.78 K
  specific heat capacity: 238.34 ± 9.7 J/K/kg
216.82 K
  specific heat capacity: 238.39 ± 9.7 J/K/kg
216.83 K
  specific heat capacity: 238.19 ± 9.7 J/K/kg
221.51 K
  specific heat capacity: 241.18 ± 9.8 J/K/kg and 241.33 ± 9.8 J/K/kg and 241.13 ± 9.8 J/K/kg
221.53 K
  specific heat capacity: 241.03 ± 9.8 J/K/kg
221.59 K
  specific heat capacity: 239.61 ± 9.7 J/K/kg
224.71 K
  specific heat capacity: 241.13 ± 9.8 J/K/kg
224.75 K
  specific heat capacity: 241.28 ± 9.8 J/K/kg
224.76 K
  specific heat capacity: 240.98 ± 9.8 J/K/kg
225.58 K
  specific heat capacity: 241.79 ± 9.8 J/K/kg
225.61 K
  specific heat capacity: 241.84 ± 9.8 J/K/kg
226.54 K
  specific heat capacity: 242.25 ± 9.8 J/K/kg and 242.35 ± 9.8 J/K/kg
226.61 K
  specific heat capacity: 240.73 ± 9.8 J/K/kg
229.65 K
  specific heat capacity: 241.89 ± 9.8 J/K/kg
229.68 K
  specific heat capacity: 241.44 ± 9.8 J/K/kg
231.54 K
  specific heat capacity: 243.26 ± 9.9 J/K/kg
231.76 K
  specific heat capacity: 241.44 ± 9.8 J/K/kg
232.62 K
  specific heat capacity: 240.42 ± 9.8 J/K/kg
232.68 K
  specific heat capacity: 239.97 ± 9.7 J/K/kg and 240.47 ± 9.8 J/K/kg
233.72 K
  specific heat capacity: 242.04 ± 9.8 J/K/kg
233.75 K
  specific heat capacity: 241.94 ± 9.8 J/K/kg
236.76 K
  specific heat capacity: 242.3 ± 9.8 J/K/kg
237.69 K
  specific heat capacity: 243.11 ± 9.9 J/K/kg
237.73 K
  specific heat capacity: 242.45 ± 9.8 J/K/kg
240.54 K
  specific heat capacity: 241.54 ± 9.8 J/K/kg
240.6 K
  specific heat capacity: 241.28 ± 9.8 J/K/kg and 241.49 ± 9.8 J/K/kg
241.59 K
  specific heat capacity: 244.22 ± 10 J/K/kg
